The source of these data is ChEMBL document CHEMBL1201862, “PubChem BioAssay data set” (2004).

SMILES strings stand for the structures.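 Step 1: Grow cells in 96-well plates. Step 2: Expose to compound for 48 hours at 5 concentrations. Step 3: Interpolate endpoints linearly; if unreached, use highest concentration. GI50 marks 50% less growth.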 Active and inactive are the calls of the source. Cut-off read from the data, not from the text of the source: active = GI50 up to about 1.1 µM and inactive = higher. Some results are limits rather than exact numbers.

Some test systems named below: CCRF-CEM; COLO 205; HCT-116; HL-60; HOP-62; HOP-92; HT-29; K562; MCF7; NCI-H226; RPMI-8226; SK-MEL-28; SK-MEL-5; SK-OV-3; SNB-75; SR; U-251; UO-31; Malme-3M.
What all share (assay): NCI anticancer screen, dose series, 48 h

`Cc1nn(-c2ccccc2)c2c1CC(=O)Nc1ccccc1-2`: the GI50 in the experiment on CCRF-CEM is 0.44 µM (active); in the experiment on COLO 205, 0.538 µM (active); in the experiment with HCT-116, 0.409 µM (active); in the experiment with HL-60 it was 0.236 µM (active); with HOP-62 it was 3.15 µM (inactive); in the experiment with HOP-92, 4.18 µM (inactive). Also, the GI50 is 0.424 µM (active) with HT-29; 0.412 µM (active) with K562; 0.372 µM (active) in the experiment on MCF7; 5.01 µM (inactive) in the experiment on NCI-H226; 0.484 µM (active) in the experiment on RPMI-8226; 0.839 µM (active) with SK-MEL-28. Moreover, the GI50 in the experiment with SK-MEL-5 is 0.379 µM (active); with SK-OV-3, 1.81 µM (inactive); in the experiment on SNB-75, 0.482 µM (active); in the experiment with SR, 0.269 µM (active); with U-251, 0.743 µM (active); in the experiment on UO-31, 2.94 µM (inactive).

On to `O=[N+]([O-])/C=C(\CS(=O)(=O)c1ccccc1)c1ccc2c(c1)OCO2`, for which the GI50 with CCRF-CEM was 0.56 µM (active); in the experiment on COLO 205, 53.5 µM (inactive); in the experiment on HCT-116 it was 34.8 µM (inactive); in the experiment on HL-60, 38 µM (inactive); with HOP-62, 92.9 µM (inactive); in the experiment on HOP-92 it was > 100 µM (inactive). Besides, the GI50 in the experiment with HT-29 is 53.1 µM (inactive); in the experiment on K562, 66.5 µM (inactive); in the experiment with MCF7, 48.2 µM (inactive); with NCI-H226, 30 µM (inactive); in the experiment on RPMI-8226 it was 87.1 µM (inactive); in the experiment on SK-MEL-28 it was 69.2 µM (inactive). Besides, the GI50 with SK-MEL-5 was 45.1 µM (inactive); in the experiment on SK-OV-3, 33.1 µM (inactive); with SNB-75, > 100 µM (inactive); in the experiment on SR, 47.5 µM (inactive); with U-251, 88.5 µM (inactive); in the experiment on UO-31 it was 28.6 µM (inactive).

For the molecule `CCCC(=O)Nc1cc(/C=C/C(=O)N2CC(CCl)c3c2cc([N+](=O)[O-])c2ccccc32)n(C)c1` (configuration not stated), the GI50 is 3.84 µM (inactive) in the experiment on CCRF-CEM; > 100 µM (inactive) with COLO 205; 11.9 µM (inactive) with HCT-116; 0.767 µM (active) in the experiment with HL-60; > 35.1 µM (inactive) with HOP-62; > 100 µM (inactive) in the experiment on HOP-92. In addition, the GI50 in the experiment with HT-29 is > 100 µM (inactive); in the experiment on K562, 0.738 µM (active); in the experiment on MCF7, 13.8 µM (inactive); with NCI-H226, > 100 µM (inactive); in the experiment with RPMI-8226 it was 0.579 µM (active); in the experiment on SK-MEL-28 it was > 100 µM (inactive). The GI50 with SK-MEL-5 was > 47.3 µM (inactive); with SK-OV-3 it was > 100 µM (inactive); in the experiment on SNB-75, 6.12 µM (inactive); in the experiment on SR, 0.796 µM (active); in the experiment with U-251, > 63.5 µM (inactive); in the experiment with UO-31, > 75.3 µM (inactive).

On to `O=C1[C@@H]2[C@@H](c3ccccc3)[C@]2(Cl)C(=O)[C@H]2[C@H](c3ccccc3)[C@@]12Cl`, for which the GI50 in the experiment with CCRF-CEM, in the experiment with COLO 205, in the experiment with HCT-116, with HL-60, in the experiment on HOP-62 and in the experiment with HOP-92 was > 100 µM (inactive) in each case. Also, the GI50 in the experiment with HT-29, with K562, in the experiment with MCF7, in the experiment with Malme-3M, in the experiment on NCI-H226 and in the experiment with SK-MEL-28 was > 100 µM (inactive) each time. Moreover, the GI50 in the experiment on SK-MEL-5 was > 100 µM (inactive); with SK-OV-3 it was > 100 µM (inactive); in the experiment on SNB-75, > 100 µM (inactive); in the experiment with SR, 0.189 µM (active); in the experiment on U-251, > 100 µM (inactive); in the experiment with UO-31, 57 µM (inactive).

Regarding `O=C1CSC(/C=C/c2ccccc2)N1c1ccc(-c2ccc(-n3c(-c4ccccc4)nc4ccccc4c3=O)cc2)cc1` (configuration not stated), the GI50 was 20.3 µM (inactive) in the experiment with CCRF-CEM; 18.2 µM (inactive) in the experiment with COLO 205; 28.8 µM (inactive) in the experiment on HL-60; 28.5 µM (inactive) in the experiment with HOP-62; 18 µM (inactive) in the experiment with HOP-92; 14.5 µM (inactive) in the experiment on HT-29. Further, the GI50 was 25.9 µM (inactive) in the experiment with K562; 22.6 µM (inactive) in the experiment on MCF7; 23.1 µM (inactive) with Malme-3M; 27.9 µM (inactive) with RPMI-8226; 18.8 µM (inactive) in the experiment with SK-MEL-28; 13.8 µM (inactive) in the experiment on SK-MEL-5. The GI50 with SK-OV-3 is 51.8 µM (inactive); in the experiment on SNB-75, 0.562 µM (active); with SR, 28.3 µM (inactive); with U-251, 21.5 µM (inactive); with UO-31, 14.2 µM (inactive).

With `COc1cc(Cn2c3c(c4c(CN(C)C)c(O)ccc42)C(=O)c2ccccc2C3=O)cc(OC)c1`, the GI50 was 24.3 µM (inactive) in the experiment with CCRF-CEM; 25.5 µM (inactive) in the experiment on COLO 205; 13.6 µM (inactive) in the experiment on HCT-116; 22.4 µM (inactive) in the experiment with HL-60; 15.7 µM (inactive) in the experiment with HOP-62; 26.9 µM (inactive) with HT-29. Moreover, the GI50 in the experiment with K562 was 14 µM (inactive); in the experiment with MCF7, 15.9 µM (inactive); in the experiment with Malme-3M, 23.2 µM (inactive); with NCI-H226 it was 33.2 µM (inactive); in the experiment on RPMI-8226, 18.5 µM (inactive); with SK-MEL-28, 15.8 µM (inactive). In addition, the GI50 in the experiment on SK-MEL-5 was 11.9 µM (inactive); in the experiment on SK-OV-3, 20.1 µM (inactive); with SNB-75 it was 0.414 µM (active); with SR, 10.3 µM (inactive); with U-251, 14.8 µM (inactive); in the experiment on UO-31 it was 14.6 µM (inactive).

As for `COc1c(C(C)(C)C)cc(CC2C(=O)C=CC2=O)cc1C(C)(C)C`, the GI50 in the experiment with CCRF-CEM is 2.29 µM (inactive); with COLO 205 it was 6.75 µM (inactive); in the experiment on HCT-116 it was 3.13 µM (inactive); in the experiment on HL-60, 4.34 µM (inactive); in the experiment with HOP-62, 18.4 µM (inactive); with HOP-92 it was 16.1 µM (inactive). Further, the GI50 is 15.5 µM (inactive) in the experiment with HT-29; 4.93 µM (inactive) with K562; 16.7 µM (inactive) with MCF7; 17.2 µM (inactive) with Malme-3M; 2.95 µM (inactive) in the experiment with RPMI-8226; 16.6 µM (inactive) with SK-MEL-28. Also, the GI50 in the experiment on SK-MEL-5 was 17.3 µM (inactive); in the experiment on SK-OV-3, 25.1 µM (inactive); in the experiment on SR, 3.89 µM (inactive); with U-251, 18.2 µM (inactive); with UO-31 it was 8.61 µM (inactive).

With `CC(=O)OC1=NN=C2COC(c3ccccc3OC(C)=O)=NN2C1`, the GI50 with CCRF-CEM is > 50 µM (inactive); in the experiment on COLO 205, 40.1 µM (inactive); in the experiment with HCT-116, > 50 µM (inactive); in the experiment with HL-60, > 50 µM (inactive); in the experiment with HOP-62 it was > 50 µM (inactive); with HOP-92 it was > 50 µM (inactive). Further, the GI50 in the experiment with HT-29 is 39 µM (inactive); in the experiment with K562, > 50 µM (inactive); with MCF7, > 50 µM (inactive); in the experiment on Malme-3M, 27.2 µM (inactive); in the experiment on RPMI-8226, > 50 µM (inactive); in the experiment with SK-MEL-28, 21.9 µM (inactive). The GI50 with SK-MEL-5 is 9.75 µM (inactive); in the experiment on SK-OV-3 it was > 50 µM (inactive); in the experiment with SNB-75, 15.8 µM (inactive); in the experiment on SR it was > 50 µM (inactive); in the experiment on U-251, > 50 µM (inactive); in the experiment with UO-31 it was 38.2 µM (inactive).
